In patent publication US20260001884A1, “Heterocycle compounds for the treatment of cancer” (Hoffmann-La Roche Inc., priority 2022, published 2026) one finds IC50 data, which are given here for four compounds.

The target in one test is recombinant CD73 protein (Homo sapiens (Human), UniProt P21589). The test is described as follows: CD73 Biochemical Assay. As to conditions: 0.2 nM recombinant CD73, 10 μM AMP working solution, Malachite Green readout; read-out: Enzymatic IC50 against CD73. The protocol: Compound serial dilution (1:3) was prepared with Echo 555 liquid handler (Labcyte) into the corresponding wells of a 384-well plate. 25 μL of enzyme working solution [0.2 nM recombinant CD73 protein (purchased from R&D Systems, Inc), 25 mM Tris-HCl pH 7.5, 5 mM MgCl2, 0.01% BSA, 0.01% Brij-35 non-ionic detergent] was added to the assay plate and incubated with compounds for 15 minutes at room temperature. After adding 25 μL of AMP working solution (10 μM AMP, 25 mM Tris-HCl pH 7.5, 5 mM MgCl2, 0.01% BSA, 0.01% Brij-35) into the assay plate, the reaction was incubated for 10 min at room temperature. 10 uL of Malachite Green A solution was then added to each well for 10 minutes incubation. 10 uL of Malachite B solution was added to each well and then incubated for another 30 minutes. Finally the absorbance value was read on the Envision plate reader (PerkinElmer) at […]. Calculation percentage inhibition by using equation {% inhibition=100×[I−(X−MIN)/(MAX−MIN)]} where X equals to the well signal, Max equals signal of DMSO control and MIN equals signal of no cell control.
Chain of recombinant CD73 protein (P21589 27-574, species assumed): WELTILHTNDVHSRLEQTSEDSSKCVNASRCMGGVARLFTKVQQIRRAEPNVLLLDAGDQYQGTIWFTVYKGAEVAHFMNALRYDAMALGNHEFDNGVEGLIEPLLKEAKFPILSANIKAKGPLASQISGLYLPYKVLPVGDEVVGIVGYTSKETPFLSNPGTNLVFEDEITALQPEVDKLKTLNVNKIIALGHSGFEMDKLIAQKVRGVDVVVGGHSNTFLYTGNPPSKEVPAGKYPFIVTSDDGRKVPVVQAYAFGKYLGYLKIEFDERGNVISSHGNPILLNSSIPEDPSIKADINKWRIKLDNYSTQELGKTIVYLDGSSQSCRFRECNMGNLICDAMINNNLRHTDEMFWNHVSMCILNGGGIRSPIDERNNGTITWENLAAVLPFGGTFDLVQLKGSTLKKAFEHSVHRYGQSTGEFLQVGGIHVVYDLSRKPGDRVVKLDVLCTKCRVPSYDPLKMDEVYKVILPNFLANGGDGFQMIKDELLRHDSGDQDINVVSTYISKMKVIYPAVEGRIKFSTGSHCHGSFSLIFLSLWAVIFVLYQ

A further test has as its target CD73 (MDA-MB-231 cells) (Homo sapiens (Human), UniProt P21589). Put plainly: CD73 Cellular Assay. It counts as cell-based. As to conditions: 10 μM AMP working solution, 45 min at 37° C., Malachite Green readout, read-out: Cellular IC50 against CD73. The protocol: Compound serial dilution (1:3) was prepared with Echo 555 liquid handler (Labcyte) into the corresponding wells of a 384-well plate. 40 μL of MDA-MB-231 cells (ATCC, HTB-26, breast cancer, final concentration at 20,000 cells/mL) suspended in assay buffer (25 mM Tris-HCl pH 7.5, 5 mM MgCl2, 0.01% BSA, 0.01% Brij-35) were added into the corresponding wells of the plate. After incubating with compounds for 30 minutes, 40 μL of AMP working solution (10 μM AMP, 25 mM Tris-HCl pH 7.5, 5 mM MgCl2, 0.01% BSA, 0.01% Brij-35) was added into each well in the assay plate. The assay plate was then incubated in a 5% CO2 incubator (Thermo Fisher Scientific) at 37° C. for 45 min. After the reaction was completed, 50 μL of the supernatants was collected and transferred into a new 384 well plate. 10 μL of Malachite A was added to each well in the assay plate and incubated for 10 minutes. 10u L of Malachite B was then added to each corresponding well of the plate and incubated for 30 minutes. Finally the absorbance value was read on the Envision plate reader at […]. Calculation percentage inhibition by using equation {% inhibition=100×[I−(X−MIN)/(MAX−MIN)]} where X equals to the well signal, Max equals signal of DMSO control and MIN equals signal of no cell control.

pIC50: −log10 of the molar value.

Chain of CD73 (MDA-MB-231 cells) (P21589 27-574): as the sequence (P21589 27-574, species assumed) above

Usually pIC50 stands for the negative decadic logarithm of the IC50, by convention in mol/L. `Cn1c(=O)[nH]c2nnc(-c3c[nH]c(=O)[nH]c3=O)cc21` [Example 1, 5-(5-methyl-6-oxo-7H-imidazo[4,5-c]pyridazin-3-yl)-1H-pyrimidine-2,4-dione]: the pIC50 at recombinant CD73 protein was 6.21; at CD73 (MDA-MB-231 cells), 7.13.

For the compound `Cn1c(=O)n(C)c2nnc(-c3c[nH]c(=O)[nH]c3=O)cc21` [Example 2, 5-(5,7-dimethyl-6-oxo-imidazo[4,5-c]pyridazin-3-yl)-1H-pyrimidine-2,4-dione], the pIC50 at recombinant CD73 protein was 6.60; at CD73 (MDA-MB-231 cells) it was 6.81.

`CC(C)n1c(=O)n(C)c2nnc(-c3c[nH]c(=O)[nH]c3=O)cc21` [Example 3, 5-(5-isopropyl-7-methyl-6-oxo-imidazo[4.5-]pyridazin-3-yl)-1H-pyrimidine-2,4-dione]: the values for the pIC50 at recombinant CD73 protein and at CD73 (MDA-MB-231 cells) were 6.57 and 7.57, respectively.

With `Cn1c(=O)n(Cc2ccccc2)c2cc(-c3c[nH]c(=O)[nH]c3=O)nnc21` [Example 4, 5-(5-benzyl-7-methyl-6-oxo-imidazo[4,5-c]pyridazin-3-yl)-1H-pyrimidine-2,4-dione], the pIC50 on CD73 (MDA-MB-231 cells) is 6.97.
